Reference: patent publication EP2697230B1, “COMPOUNDS FOR THE TREATMENT OF HEPATITIS C” (priority 2011, dated 2012)
Where two headings read alike, the source gives them in different places.

Test system: HCV pseudoparticles, genotype 1a HCV E1 and E2 envelope (H77C isolate)
Assay: HCV pseudoparticle infection assay (luciferase reporter, Huh7 cells)
Type: cell-based
[1] = Hepatitis C virus, Huh-7, 48 h, read-out: EC50 (nM) 1a (H77C), class symbol, HCV pseudoparticles genotype 1a (H77C), luciferase 2 days after infection
[2] = Hepatitis C virus, Huh-7, 48 h, read-out: EC50 (nM) 1a (H77C), numeric value, HCV pseudoparticles genotype 1a (H77C), luciferase 2 days after infection
[3] = class symbol, HCV pseudoparticles genotype 1a (H77C), luciferase 2 days after infection, read-out: EC50 (nM) 1a (H77C)
[4] = numeric value, HCV pseudoparticles genotype 1a (H77C), luciferase 2 days after infection, read-out: EC50 (nM) 1a (H77C)

| Compound | EC50 [1] [nM] | further results |
| --- | --- | --- |
| O=C1NCCCCCCNC(=O)c2ccc(cc2)Nc2nc(nc(OCC(F)(F)F)n2)NCc2ccc1cc2 [Example 0032] | 100 to 1000 |  |
| CN1CCCNC(=O)c2ccc(cc2)Nc2nc(nc(OCC(F)(F)F)n2)NCc2ccc(cc2)OCCC1 [Example 6018] | 0.1 to 100 |  |
| O=C1COCC(=O)NCc2ccc(cc2)Nc2nc(nc(OCC(F)(F)F)n2)NCc2ccc(cc2)CN1 [Example 0069] | 0.1 to 100 | EC50 [2]: 78.8 nM |
| CC(C)CN1CCCNC(=O)c2ccc(cc2)Nc2nc(nc(OCC(F)(F)F)n2)NCc2ccc(cc2)OCCC1 [Example 6020] | 0.1 to 100 |  |
| CCNC(=O)N1CCCOc2ccc(cc2)CNc2nc(nc(OCC(F)(F)F)n2)Nc2ccc(cc2)C(=O)NCC(C)(C)C1 [Example 6028] | 0.1 to 100 |  |
| CN1CCCNC(=O)c2ccc(cc2)Nc2nc(nc(OCC(F)(F)F)n2)Nc2ccc(cc2)C(=O)NCCC1 [Example 0022] | 100 to 1000 |  |
| CCNC(=O)N1CCCCNC(=O)c2ccc(cc2)Nc2nc(nc(OCC(F)(F)F)n2)NCc2ccc(cc2)OCCC1 [Example 6022] | 0.1 to 100 | EC50 [2]: 11.8 nM |
| O=C1NCc2ccc(cc2)CNc2nc(nc(OCC(F)(F)F)n2)Nc2ccc(cc2)CNC(=O)OCCOCCOCCO1 [Example 0067] | 100 to 1000 |  |
| CC(C)(C)OC(=O)N1CCCNC(=O)c2ccc(cc2)Nc2nc(nc(OCC(F)(F)F)n2)NCc2ccc(cc2)OCCC1 [Example 6017] | 0.1 to 100 |  |
| CCC(=O)N1CCCCOc2ccc(cc2)CNc2nc(nc(OCC(F)(F)F)n2)Nc2ccc(cc2)C(=O)NCCC1 [Example 4019] | 0.1 to 100 |  |
| CC1(C)NC(=O)NCc2ccc(cc2)Nc2nc(nc(OCC(F)(F)F)n2)NCc2cccc(c2)CNC(=O)NC(C)(C)c2cccc1c2 [Example 0058] | 100 to 1000 |  |
| CC(C)OC(=O)N1CCCCOc2ccc(cc2)CNc2nc(nc(OCC(F)(F)F)n2)Nc2ccc(cc2)C(=O)NCCC1 [Example 4025] | 0.1 to 100 |  |
| O=C1NCCNCCNc2nc(nc(OCC(F)(F)F)n2)Nc2ccc1cc2 [Example 0001] |  | EC50 [3]: 1000 to 5000 nM; EC50 [4]: 4200 nM |
| CCCNC(=O)N1CCCOc2ccc(cc2)CNc2nc(nc(OCC(F)(F)F)n2)Nc2ccc(cc2)C(=O)NCC(C)(C)C1 [Example 6030] | 0.1 to 100 |  |
| COC(=O)N1CCCOc2ccc(cc2)CNc2nc(nc(OCC(F)(F)F)n2)Nc2ccc(cc2)C(=O)NCC(C)(C)C1 [Example 6032] | 0.1 to 100 |  |
| CN1CCCN(C)CCCN(C)C(=O)c2ccc(cc2)Nc2nc(nc(OCC(F)(F)F)n2)NCc2ccc(cc2)C(=O)N(C)CCC1 [Example 0041] | 1000 to 5000 | EC50 [2]: 21600 nM |
| O=C1NCCCCCCNC(=O)NCc2cccc(c2)CNc2nc(nc(OCC(F)(F)F)n2)Nc2ccc(cc2)CN1 [Example 0056] | 100 to 1000 |  |
| O=C1NCCCCNC(=O)C2(CC2)Nc2nc(nc(OCC(F)(F)F)n2)Nc2ccc1cc2 [Example 0006] |  | EC50 [3]: 1000 to 5000 nM |
| O=C1NCCCCCNc2cccc(c2)C2(CC2)Nc2nc(nc(OCC(F)(F)F)n2)Nc2ccc1cc2 [Example 3001] | 0.1 to 100 |  |
| CNC(=O)N1CCCCNC(=O)c2ccc(cc2)Nc2nc(nc(OCC(F)(F)F)n2)NC2(CC2)c2ccc(cc2)OCCC1 [Example 5004] | 0.1 to 100 |  |

| Compound | EC50 [1] [nM] | further results |
| --- | --- | --- |
| CCOC(=O)N1CCCCNC(=O)c2ccc(cc2)Nc2nc(nc(OCC(F)(F)F)n2)NCc2ccc(cc2)OCC1 [Example 4014] | 0.1 to 100 |  |
| COC(=O)N1CCCCNC(=O)c2ccc(cc2)Nc2nc(nc(OCC(F)(F)F)n2)NCc2ccc(cc2)OCC1 [Example 4013] | 0.1 to 100 |  |
| O=C1NCc2ccc(cc2)Nc2nc(nc(OCC(F)(F)F)n2)NCc2cccc(c2)CNC(=O)c2ccc1cc2 [Example 0060] | 100 to 1000 |  |
| CNC(=O)N1CCCCCCCCNc2nc(nc(OCC(F)(F)F)n2)Nc2ccc(cc2)C(=O)NCCC1 [Example 9006] | 0.1 to 100 |  |
| CCCCN1CCCNC(=O)c2ccc(cc2)Nc2nc(nc(OCC(F)(F)F)n2)NCc2ccc(cc2)OCCC1 [Example 6019] | 0.1 to 100 |  |
| CCCOC(=O)N1CCCNC(=O)c2ccc(cc2)Nc2nc(nc(OCC(F)(F)F)n2)NCc2ccc(cc2)OCCC1 [Example 6016] | 0.1 to 100 |  |
| CCOC(=O)N1CCCNC(=O)c2ccc(cc2)Nc2nc(nc(OCC(F)(F)F)n2)NCc2ccc(cc2)OCCC1 [Example 6015] | 0.1 to 100 |  |
| CC1(C)CNCCCOc2ccc(cc2)CNc2nc(nc(OCC(F)(F)F)n2)Nc2ccc(cc2)C(=O)NC1 [Example 6024] | 0.1 to 100 |  |
| CC(C)NC(=O)N1CCCCOc2ccc(cc2)CNc2nc(nc(OCC(F)(F)F)n2)Nc2ccc(cc2)C(=O)NCCC1 [Example 4032] | 0.1 to 100 |  |
| CC(C)(C)OC(=O)N1CCCCOc2ccc(cc2)CNc2nc(nc(OCC(F)(F)F)n2)Nc2ccc(cc2)C(=O)NCCC1 [Example 4026] | 0.1 to 100 |  |
| O=C1CCCC(=O)NCc2cccc(c2)CNc2nc(nc(OCC(F)(F)F)n2)Nc2ccc(cc2)CN1 [Example 0062] | 100 to 1000 |  |
| CC1(C)CNC(=O)c2ccc(cc2)Nc2nc(nc(OCC(F)(F)F)n2)NCc2ccc(cc2)OCCCN(C(=O)NC(C)(C)C)C1 [Example 6031] | 0.1 to 100 |  |
| O=C1NCCCNCCCOc2ccc(cc2)C2(CC2)Nc2nc(nc(OCC(F)(F)F)n2)Nc2ccc1cc2 [Example 5001] |  | EC50 [3]: 0.1 to 100 nM |
| O=C1NCCCCNC(=O)c2ccc(cc2)Nc2nc(nc(OCC(F)(F)F)n2)NCc2ccc1cc2 [Example 0033] | 100 to 1000 |  |
| O=C1CCCCCCCCC(=O)NCc2cccc(c2)CNc2nc(nc(OCC(F)(F)F)n2)Nc2ccc(cc2)CN1 [Example 0065] | 100 to 1000 |  |
| COC(=O)N1CCCNC(=O)c2ccc(cc2)Nc2nc(nc(OCC(F)(F)F)n2)NCc2ccc(cc2)OCCC1 [Example 6014] | 0.1 to 100 | EC50 [2]: 1.51 nM |
| CCNC(=O)N1CCCNC(=O)c2ccc(cc2)Nc2nc(nc(OCC(F)(F)F)n2)NCc2ccc(cc2)OCCC1 [Example 6012] | 0.1 to 100 | EC50 [2]: 6.1 nM |
| O=C1NCc2ccc(cc2)Nc2nc(nc(OCC(F)(F)F)n2)NCc2cccc(c2)CNC(=O)Nc2cccc(c2)N1 [Example 0052] | 100 to 1000 |  |
| O=C1NC2CNCC2C(=O)NCCCCCCOc2ccc(cc2)CNc2nc(nc(OCC(F)(F)F)n2)Nc2ccc1cc2 (stereo not drawn) [Example 0007] |  | EC50 [3]: 0.1 to 100 nM; EC50 [4]: 8.31 nM |
| COC(=O)N1CCCOc2ccc(cc2)CNc2nc(nc(OCC(F)(F)F)n2)Nc2ccc(cc2)C(=O)NCC1 [Example 6006] | 0.1 to 100 |  |

| Compound | EC50 [1] [nM] | further results |
| --- | --- | --- |
| O=C1CCCNC(=O)c2ccc(cc2)Nc2nc(nc(OCC(F)(F)F)n2)NCc2ccc(cc2)OCC=CCS(=O)(=O)N1 [Example 3010] | 0.1 to 100 | EC50 [2]: 20.3 nM |
| O=C1NCCCNCCCCOc2ccc(cc2)CNc2nc(nc(OCC(F)(F)F)n2)Nc2ccc1cc2 [Example 4017] | 0.1 to 100 |  |
| CC(C)(C)NC(=O)N1CCCCOc2ccc(cc2)CNc2nc(nc(OCC(F)(F)F)n2)Nc2ccc(cc2)C(=O)NCCC1 [Example 4034] | 0.1 to 100 |  |
| CC1(C)C(=O)NCc2ccc(cc2)Nc2nc(nc(OCC(F)(F)F)n2)NCc2cccc(c2)CNC1=O [Example 0072] | 0.1 to 100 |  |
| CCCN1CCCNC(=O)c2ccc(cc2)Nc2nc(nc(OCC(F)(F)F)n2)NCc2ccc(cc2)OCCC1 [Example 6027] | 0.1 to 100 |  |
| O=C1NS(=O)(=O)C/C=C/CCCOc2ccc(cc2)CNc2nc(nc(OCC(F)(F)F)n2)Nc2ccc1cc2 [Example 3005] | 1000 to 5000 |  |
| CC(C)N1CCCNC(=O)c2ccc(cc2)Nc2nc(nc(OCC(F)(F)F)n2)NCc2ccc(cc2)OCCC1 [Example 6025] | 0.1 to 100 |  |
| CCN(CC)CCN1CCNC(=O)c2ccc(cc2)Nc2nc(nc(OCC(F)(F)F)n2)Nc2ccc(cc2)C1=O [Example 0021] | 100 to 1000 |  |
| O=C1NCCCCCCCCNc2nc(nc(OCC(F)(F)F)n2)Nc2ccc1cc2 [Example 0002] |  | EC50 [3]: 0.1 to 100 nM |
| CC(C)(C)OC(=O)N1CCCOc2ccc(cc2)CNc2nc(nc(OCC(F)(F)F)n2)Nc2ccc(cc2)C(=O)NCC1 [Example 6002] | 0.1 to 100 |  |
| O=C1NCCCOCCCCOCCCNc2nc(nc(OCC(F)(F)F)n2)Nc2ccc1cc2 [Example 0004] |  | EC50 [3]: 0.1 to 100 nM; EC50 [4]: 48.4 nM |
| O=C1CNC(=O)c2ccc(cc2)Nc2nc(nc(OCC(F)(F)F)n2)NCc2ccc(cc2)OCC=CCS(=O)(=O)N1 [Example 3007] | 100 to 1000 | EC50 [2]: 557 nM |
| COC(=O)N1CCCCCCCCNc2nc(nc(OCC(F)(F)F)n2)Nc2ccc(cc2)C(=O)NCCC1 [Example 9003] | 0.1 to 100 |  |
| CCOC(=O)N1CCCCOc2ccc(cc2)CNc2nc(nc(OCC(F)(F)F)n2)Nc2ccc(cc2)C(=O)NCCC1 [Example 4024] | 0.1 to 100 |  |
| CNC(=O)N1CCCOc2ccc(cc2)CNc2nc(nc(OCC(F)(F)F)n2)Nc2ccc(cc2)C(=O)NCC(C)(C)C1 [Example 6038] | 0.1 to 100 |  |
| O=C1NCCCCCCCCCCNc2nc(nc(OCC(F)(F)F)n2)Nc2ccc1cc2 [Example 0003] |  | EC50 [3]: 100 to 1000 nM; EC50 [4]: 101 nM |
| O=C1CCCCCCC(=O)NCc2ccc(cc2)Nc2nc(nc(OCC(F)(F)F)n2)NCc2ccc(cc2)CN1 [Example 0063] | 100 to 1000 |  |
| CCN(CC)CCN1CCNC(=O)c2ccc(cc2)CNc2nc(nc(OCC(F)(F)F)n2)Nc2ccc(cc2)C1=O [Example 0035] | 1000 to 5000 |  |
